Measured values from patent US6462037B1, “1,4-benzodiazepin-2-ones useful as HIV reverse transcriptase inhibitors” (Bristol-Myers Squibb Pharma Company, priority 1999, dated 2002).

| SMILES | melting point [°C] |
| --- | --- |
| O=C1CN(Cc2c(F)cccc2F)C(C(F)(F)F)c2cc(Cl)ccc2N1 (stereo not shown) [compound 117, 7-Chloro-4-(2,6-difluorobenzyl)-1,5-dihydro-5-(trifluoromethyl)-1,4-benzodiazepin-2-one] | 173 to 174 |
| COc1cccc(CN2CC(=O)Nc3ccc(Cl)cc3C2C(F)(F)F)c1 (stereo not shown) [compound 118, 7-Chloro-4-(3-methoxybenzyl)-1,5-dihydro-5-(trifluoromethyl)-1,4-benzodiazepin-2-one] | 171 to 172 |
| Cc1ccccc1CN1CC(=O)Nc2ccc(Cl)cc2C1C(F)(F)F (stereo not shown) [compound 113, 7-Chloro-4-(2-methylbenzyl)-1,5-dihydro-5-(trifluoromethyl)-1,4-benzodiazepin-2-one] | 197 to 198 |
| CCCCN1CC(=O)Nc2ccc(Cl)cc2C1(C#CC(C)C)C(F)(F)F (stereo not shown) [compound 136, 7-Chloro-4-butyl-5-(3-methyl-1-butynyl)-1,5-dihydro-5-(trifluoromethyl)-1,4-benzodiazepin-2-one] | 123 to 125 |
| COc1ccccc1CN1CC(=O)Nc2ccc(Cl)cc2C1C(F)(F)F (stereo not shown) [compound 121, 7-Chloro-4-(2-methoxybenzyl)-1,5-dihydro-5-(trifluoromethyl)-1,4-benzodiazepin-2-one] | 145 to 146 |
| O=C1CN(CCCc2ccccc2)C(C(F)(F)F)c2cc(Cl)ccc2N1 (stereo not shown) [compound 109, 7-Chloro-4-(3-phenylpropyl)-1,5-dihydro-5-(trifluoromethyl)-1,4-benzodiazepin-2-one] | 89 to 91 |
| O=C1CN(Cc2ccco2)C(C(F)(F)F)c2cc(Cl)ccc2N1 (stereo not shown) [compound 124, 7-Chloro-4-(2-furanylmethyl)-1,5-dihydro-5-(trifluoromethyl)-1,4-benzodiazepin-2-one] | 143 to 145 |
| COc1cccc(F)c1CN1CC(=O)Nc2ccc(F)c(F)c2C1C(F)(F)F (stereo not shown) [compound 132, 6,7-Difluoro-4-(2-fluoro-6-methoxybenzyl)-1,5-dihydro-5-(trifluoromethyl)-1,4-benzodiazepin-2-one] | 168 to 170 |
| O=C1CN(Cc2ccccc2)C(C(F)(F)F)c2cc(Cl)ccc2N1 (stereo not shown) [compound 110, 7-Chloro-4-benzyl-1,5-dihydro-5-(trifluoromethyl)-1,4-benzodiazepin-2-one] | 142 to 143 |
| N#Cc1cccc(CN2CC(=O)Nc3ccc(Cl)cc3C2C(F)(F)F)c1 (stereo not shown) [compound 120, 7-Chloro-4-(3-cyanobenzyl)-1,5-dihydro-5-(trifluoromethyl)-1,4-benzodiazepin-2-one] | 241 to 242 |
| CCCC#CCN1CC(=O)Nc2ccc(Cl)cc2C1C(F)(F)F (stereo not shown) [compound 129, 7-Chloro-4-(2-hexynyl)-1,5-dihydro-5-(trifluoromethyl)-1,4-benzodiazepin-2-one] | 96 to 98 |
| O=C1CN(Cc2ccccn2)C(C(F)(F)F)c2cc(Cl)ccc2N1 (stereo not shown) [compound 102, 7-Chloro-4-(2-pyridylmethyl)-1,5-dihydro-5-(trifluoromethyl)-1,4-benzodiazepin-2-one] | 184 to 187 |
| COc1cccc(OC)c1CN1CC(=O)Nc2ccc(Cl)cc2C1C(F)(F)F (stereo not shown) [compound 143, 7-Chloro-4-(2,6-dimethoxybenzyl)-1,5-dihydro-5-(trifluoromethyl)-1,4-benzodiazepin-2-one] | 128 to 129 |
| O=C1CN(Cc2cccs2)C(C(F)(F)F)c2cc(Cl)ccc2N1 (stereo not shown) [compound 122, 7-Chloro-4-(2-thienylmethyl)-1,5-dihydro-5-(trifluoromethyl)-1,4-benzodiazepin-2-one] | 105 to 107 |
| O=C1CN(CCc2ccccc2I)C(C(F)(F)F)c2cc(Cl)ccc2N1 (stereo not shown) [compound 140, 7-Chloro-4-(2-(2-iodophenyl)ethyl)-1,5-dihydro-5-(trifluoromethyl)-1,4-benzodiazepin-2-one] | 172 to 173 |
| O=C1CN(Cc2c(F)cccc2Cl)C(C(F)(F)F)c2cc(Cl)ccc2N1 (stereo not shown) [compound 115, 7-Chloro-4-(2-chloro-6-fluorobenzyl)-1,5-dihydro-5-(trifluoromethyl)-1,4-benzodiazepin-2-one] | 171 to 172 |
| CC(C)=CCN1CC(=O)Nc2ccc(Cl)cc2C1C(F)(F)F (stereo not shown) [compound 101, 7-Chloro-4-(3-methyl-2-butenyl)-1,5-dihydro-5-(trifluoromethyl)-1,4-benzodiazepin-2-one] | 120 to 125 |
| COc1cccnc1CN1CC(=O)Nc2ccc(Cl)cc2C1C(F)(F)F (stereo not shown) [compound 126, 7-Chloro-4-(3-methoxy-2-pyridylmethyl)-1,5-dihydro-5-(trifluoromethyl)-1,4-benzodiazepin-2-one] | 146 to 148 |
| CCC(C)CCN1CC(=O)Nc2ccc(Cl)cc2C1C(F)(F)F (stereo not shown) [compound 131, 7-Chloro-4-(3-methylpentyl)-1,5-dihydro-5-(trifluoromethyl)-1,4-benzodiazepin-2-one] | 113 to 116 |
| O=C1CN(C(=O)c2ccccc2)C(C(F)(F)F)c2cc(Cl)ccc2N1 (stereo not shown) [compound 139, 7-Chloro-4-benzoyl-1,5-dihydro-5-(trifluoromethyl)-1,4-benzodiazepin-2-one] | 257 to 258 |

More lines, now with the values ahead:

| melting point [°C] | SMILES |
| --- | --- |
| 150 to 153 | O=C1C=NC(/C=C/C2CC2)(C(F)(F)F)c2cc(Cl)ccc2N1 (stereo not shown) [compound 191, 7-Chloro-5-(2-cyclopropyl-E-ethenyl)-1,5-dihydro-5-(trifluoromethyl)-1,4-benzodiazepin-2-one] |
| 114 to 115 | CCC#CCN1CC(=O)Nc2ccc(Cl)cc2C1C(F)(F)F (stereo not shown) [compound 160, 7-Chloro-4-(2-pentynyl)-1,5-dihydro-5-(trifluoromethyl)-1,4-benzodiazepin-2-one] |
| 160 to 162 | O=C1C=NC(Cc2ccccc2)(C(F)(F)F)c2cc(Cl)ccc2N1 (stereo not shown) [compound 190, 7-Chloro-5-benzyl-1,5-dihydro-5-(trifluoromethyl)-1,4-benzodiazepin-2-one] |
| 123 to 124 | CCC#CCN1CC(=O)Nc2ccc(Cl)cc2C1C(F)(F)F (stereo not shown) [compound 149, 7-Chloro-4-(2-pentynyl)-1,5-dihydro-5-(trifluoromethyl)-1,4-benzodiazepin-2-one] |
| 174 to 176 | CCCCC1(C(F)(F)F)N=CC(=O)Nc2ccc(Cl)cc21 (stereo not shown) [compound 203, 7-Chloro-5-butyl-1,5-dihydro-5-(trifluoromethyl)-1,4-benzodiazepin-2-one] |
| 150 to 152 | CC(C)CCC1(C(F)(F)F)N=CC(=O)Nc2ccc(Cl)cc21 (stereo not shown) [compound 188, 7-Chloro-5-(3-methylbutyl)-1,5-dihydro-5-(trifluoromethyl)-1,4-benzodiazepin-2-one] |
| 160 to 163 | O=C1C=NC(CCC(F)(F)F)(C(F)(F)F)c2c(ccc(F)c2F)N1 (stereo not shown) [compound 201, 6,7-Difluoro-5-(3,3,3-trifluoropropyl)-1,5-dihydro-5-(trifluoromethyl)-1,4-benzodiazepin-2-one] |
| 178 to 180 | O=C1C=NC(CCCC(F)(F)F)(C(F)(F)F)c2cc(Cl)ccc2N1 (stereo not shown) [compound 197, 7-Chloro-5-(4,4,4-trifluorobutyl)-1,5-dihydro-5-(trifluoromethyl)-1,4-benzodiazepin-2-one] |
| 175 to 178 | O=C1C=NC(C#CC2CC2)(C(F)(F)F)c2cc(F)ccc2N1 (stereo not shown) [compound 199, 7-Fluoro-5-(cyclopropylethynyl)-1,5-dihydro-5-(trifluoromethyl)-1,4-benzodiazepin-2-one] |
| 187 to 188 | O=C1CN(c2ccccc2)C(C(F)(F)F)c2cc(Cl)ccc2N1 (stereo not shown) [compound 164, 7-Chloro-4-phenyl-1,5-dihydro-5-(trifluoromethyl)-1,4-benzodiazepin-2-one] |
| 196 to 197 | Cc1cccc(F)c1CN1CC(=O)Nc2ccc(Cl)cc2C1C(F)(F)F (stereo not shown) [compound 180, 7-Chloro-4-(2-fluoro-6-methylbenzyl)-1,5-dihydro-5-(trifluoromethyl)-1,4-benzodiazepin-2-one] |
| 148 to 149 | O=C1C=NC(CC(=O)C2CC2)(C(F)(F)F)c2cc(Cl)ccc2N1 (stereo not shown) [compound 167, 7-Chloro-5-(2-cyclopropyl-2-ethanonyl)-1,5-dihydro-5-(trifluoromethyl)-1,4-benzodiazepin-2-one] |
| 182 to 183 | O=C1C=NC(CCc2ccccc2)(C(F)(F)F)c2cc(Cl)ccc2N1 (stereo not shown) [compound 170, 7-Chloro-5-(2-phenylethyl)-1,5-dihydro-5-(trifluoromethyl)-1,4-benzodiazepin-2-one] |
| 135 to 136 | CN1CC(=O)Nc2ccc(Cl)cc2C1(C#CC1CC1)C(F)(F)F (stereo not shown) [compound 175, 7-Chloro-4-methyl-5-(cyclopropylethynyl)-1,5-dihydro-5-(trifluoromethyl)-1,4-benzodiazepin-2-one] |
| 103 to 104 | CCCCCC1(C(F)(F)F)N=C(C)C(=O)Nc2ccc(Cl)cc21 (stereo not shown) [compound 171, 7-Chloro-3-methyl-5-(4-methylbutyl)-1,5-dihydro-5-(trifluoromethyl)-1,4-benzodiazepin-2-one] |
| 138 to 139 | O=C1CN(CC#Cc2ccccc2)C(C(F)(F)F)c2cc(Cl)ccc2N1 (stereo not shown) [compound 154, 7-Chloro-4-(3-phenyl-2-propynyl)-1,5-dihydro-5-(trifluoromethyl)-1,4-benzodiazepin-2-one] |
| 174 to 175 | CC#CCN1CC(=O)Nc2ccc(Cl)cc2C1C(F)(F)F (stereo not shown) [compound 166, 7-Chloro-4-(2-butynyl)-1,5-dihydro-5-(trifluoromethyl)-1,4-benzodiazepin-2-one] |
| 68 to 70 | CC(C)CCN1CC(=O)Nc2ccc(Cl)cc2C1C(F)(F)F (stereo not shown) [compound 151, 7-Chloro-4-(3-methylbutyl)-1,5-dihydro-5-(trifluoromethyl)-1,4-benzodiazepin-2-one] |
| 181 to 182 | CCC1=NC(C#CC2CC2)(C(F)(F)F)c2ccccc2NC1=O (stereo not shown) [compound 186, 3-Ethyl-5-(cyclopropylethynyl)-1,5-dihydro-5-(trifluoromethyl)-1,4-benzodiazepin-2-one] |
| 134 to 135 | O=C1CN(Cc2cc(F)ccc2F)C(C(F)(F)F)c2cc(Cl)ccc2N1 (stereo not shown) [compound 148, 7-Chloro-4-(2,5-difluorobenzyl)-1,5-dihydro-5-(trifluoromethyl)-1,4-benzodiazepin-2-one] |
